{"source": "ChEMBL document CHEMBL3132769", "about": "“Fragment growing to retain or alter the selectivity of anchored kinase hinge-binding fragments” (Medchemcomm, 2014)", "key": {"[1]": {"molecular_target": "T1, Mitogen-activated protein kinase 12 (Homo sapiens) (UniProt P53778)", "T1 sequence (whole entry)": "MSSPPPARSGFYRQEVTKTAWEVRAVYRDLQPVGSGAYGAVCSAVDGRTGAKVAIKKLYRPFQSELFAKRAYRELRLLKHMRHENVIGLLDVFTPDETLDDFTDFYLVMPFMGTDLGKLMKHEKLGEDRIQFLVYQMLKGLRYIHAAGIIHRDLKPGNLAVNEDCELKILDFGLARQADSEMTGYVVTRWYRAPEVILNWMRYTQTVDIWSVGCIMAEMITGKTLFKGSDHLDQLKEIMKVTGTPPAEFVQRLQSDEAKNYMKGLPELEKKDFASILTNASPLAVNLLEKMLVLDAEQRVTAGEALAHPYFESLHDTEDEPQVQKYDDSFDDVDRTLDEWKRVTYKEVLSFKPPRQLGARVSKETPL", "test": "Inhibition of human full length p38 gamma expressed in Escherichia coli cell assessed as substrate phosphorylation using fluorescence-labelled peptides as substrate at 2 uM after 90 mins by microfluidic peptide phosphorylation assay"}, "[2]": {"molecular_target": "T2, Serine/threonine-protein kinase Nek2 (Homo sapiens) (UniProt P51955)", "T2 sequence (whole entry)": "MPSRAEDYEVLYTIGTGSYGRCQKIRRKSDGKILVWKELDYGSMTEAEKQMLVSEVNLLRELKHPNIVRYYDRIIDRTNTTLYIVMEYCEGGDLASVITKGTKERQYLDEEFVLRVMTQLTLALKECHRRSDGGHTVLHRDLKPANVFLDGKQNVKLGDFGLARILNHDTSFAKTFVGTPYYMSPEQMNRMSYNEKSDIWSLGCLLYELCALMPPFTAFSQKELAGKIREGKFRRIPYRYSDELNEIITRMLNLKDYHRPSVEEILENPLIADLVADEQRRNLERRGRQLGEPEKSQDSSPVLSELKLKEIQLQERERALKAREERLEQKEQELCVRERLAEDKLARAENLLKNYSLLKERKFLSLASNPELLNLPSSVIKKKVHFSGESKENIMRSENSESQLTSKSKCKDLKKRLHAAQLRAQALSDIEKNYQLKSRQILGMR", "test": "Inhibition of human full length NEK2 expressed in baculovirus assessed as substrate phosphorylation using fluorescence-labelled peptides as substrate at […] after 90 mins by microfluidic peptide phosphorylation assay"}, "[3]": {"molecular_target": "T3, Calcium/calmodulin-dependent protein kinase type IV (Homo sapiens) (UniProt Q16566)", "T3 sequence (whole entry)": "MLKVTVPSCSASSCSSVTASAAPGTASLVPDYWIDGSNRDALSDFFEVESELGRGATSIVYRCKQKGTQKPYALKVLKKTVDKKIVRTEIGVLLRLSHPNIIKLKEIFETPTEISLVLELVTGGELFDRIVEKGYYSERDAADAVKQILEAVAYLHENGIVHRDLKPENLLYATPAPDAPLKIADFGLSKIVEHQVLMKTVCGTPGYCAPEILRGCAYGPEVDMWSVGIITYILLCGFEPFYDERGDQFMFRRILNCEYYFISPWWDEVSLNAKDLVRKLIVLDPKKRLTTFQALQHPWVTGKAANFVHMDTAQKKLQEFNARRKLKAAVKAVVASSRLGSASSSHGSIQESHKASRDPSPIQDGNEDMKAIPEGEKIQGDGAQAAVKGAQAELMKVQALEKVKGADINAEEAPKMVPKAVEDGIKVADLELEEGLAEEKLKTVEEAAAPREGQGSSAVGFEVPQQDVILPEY", "test": "Inhibition of human full length CAMK4 expressed in baculovirus assessed as substrate phosphorylation using fluorescence-labelled peptides as substrate at 0.1 uM after 90 mins by microfluidic peptide phosphorylation assay"}, "[4]": {"molecular_target": "Mitogen-activated protein kinase 14 (Homo sapiens) (UniProt Q16539)", "sequence (Q16539 whole entry, the tested form may be a part)": "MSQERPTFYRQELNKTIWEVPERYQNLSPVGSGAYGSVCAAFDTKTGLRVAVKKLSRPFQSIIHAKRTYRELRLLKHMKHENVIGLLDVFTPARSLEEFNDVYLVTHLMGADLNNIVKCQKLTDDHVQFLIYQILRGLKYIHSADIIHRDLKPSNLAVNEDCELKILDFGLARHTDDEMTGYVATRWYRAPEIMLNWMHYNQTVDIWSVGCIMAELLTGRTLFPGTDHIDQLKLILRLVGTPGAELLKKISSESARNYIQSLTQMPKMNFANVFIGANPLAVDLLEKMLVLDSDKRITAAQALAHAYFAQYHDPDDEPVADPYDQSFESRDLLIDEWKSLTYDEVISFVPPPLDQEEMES", "test": "Inhibition of human truncated p38 alpha expressed in Escherichia coli cell assessed as substrate phosphorylation using fluorescence-labelled peptides as substrate at 0.1 uM after 90 mins by microfluidic peptide phosphorylation assay"}, "[5]": {"molecular_target": "Serine/threonine-protein kinase pim-1 (Homo sapiens) (UniProt P11309)", "sequence (P11309 whole entry, looked up)": "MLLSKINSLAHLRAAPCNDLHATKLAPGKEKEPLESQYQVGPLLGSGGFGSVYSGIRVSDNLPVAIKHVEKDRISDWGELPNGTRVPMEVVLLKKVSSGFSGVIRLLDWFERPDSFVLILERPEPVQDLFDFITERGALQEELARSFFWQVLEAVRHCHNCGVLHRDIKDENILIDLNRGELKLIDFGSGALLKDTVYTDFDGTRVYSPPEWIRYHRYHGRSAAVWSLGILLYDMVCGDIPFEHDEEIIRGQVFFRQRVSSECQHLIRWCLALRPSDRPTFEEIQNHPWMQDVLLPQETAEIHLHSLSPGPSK", "test": "Inhibition of human full length PIM1 expressed in baculovirus assessed as substrate phosphorylation using fluorescence-labelled peptides as substrate at 95 uM after 90 mins by microfluidic peptide phosphorylation assay"}, "[6]": {"molecular_target": "T4, Serine/threonine-protein kinase D1 (Homo sapiens) (UniProt Q15139)", "T4 sequence (whole entry)": "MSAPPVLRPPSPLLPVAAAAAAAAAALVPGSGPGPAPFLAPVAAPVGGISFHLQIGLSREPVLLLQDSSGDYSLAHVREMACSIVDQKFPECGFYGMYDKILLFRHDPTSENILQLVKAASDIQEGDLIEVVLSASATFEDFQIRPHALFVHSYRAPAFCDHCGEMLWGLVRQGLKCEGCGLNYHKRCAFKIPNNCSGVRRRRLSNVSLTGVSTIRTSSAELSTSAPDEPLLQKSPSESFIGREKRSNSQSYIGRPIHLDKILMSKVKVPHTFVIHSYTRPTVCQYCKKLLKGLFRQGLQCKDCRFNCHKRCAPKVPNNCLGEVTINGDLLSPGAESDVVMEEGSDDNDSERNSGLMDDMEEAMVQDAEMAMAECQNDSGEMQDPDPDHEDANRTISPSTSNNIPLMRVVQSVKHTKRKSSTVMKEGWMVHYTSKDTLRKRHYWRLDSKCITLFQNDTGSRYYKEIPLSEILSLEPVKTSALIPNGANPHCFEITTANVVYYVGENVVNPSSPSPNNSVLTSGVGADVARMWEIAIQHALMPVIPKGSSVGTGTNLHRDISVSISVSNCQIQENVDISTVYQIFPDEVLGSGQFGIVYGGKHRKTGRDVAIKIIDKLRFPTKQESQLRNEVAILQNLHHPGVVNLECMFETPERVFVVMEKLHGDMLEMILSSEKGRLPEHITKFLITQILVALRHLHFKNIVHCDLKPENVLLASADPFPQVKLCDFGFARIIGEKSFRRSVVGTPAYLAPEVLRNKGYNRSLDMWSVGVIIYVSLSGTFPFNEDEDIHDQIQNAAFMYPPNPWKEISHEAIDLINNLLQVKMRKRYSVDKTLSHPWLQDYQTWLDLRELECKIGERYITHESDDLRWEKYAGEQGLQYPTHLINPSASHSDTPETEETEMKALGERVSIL", "test": "Inhibition of human full length PKD1 expressed in baculovirus assessed as substrate phosphorylation using fluorescence-labelled peptides as substrate at 70 uM after 90 mins by microfluidic peptide phosphorylation assay"}}, "data": [{"molecule": "NC1CCN(c2ncnc3[nH]ccc23)CC1", "values": [{"measurement": "inhibition", "setting": "[1]", "value": 1.5, "unit": "%"}]}, {"molecule": "COC(=O)c1cnc(Nc2cnc(C#N)cn2)cc1NCC1CCNCC1", "values": [{"measurement": "inhibition", "setting": "[2]", "value": 0.5, "unit": "%"}]}, {"molecule": "C[C@H](CN(C)C)Oc1nc(Nc2cc3cccc(Cl)c3cn2)cnc1C#N", "values": [{"measurement": "inhibition", "setting": "[3]", "value": 3.5, "unit": "%"}, {"measurement": "inhibition", "setting": "[4]", "value": 1, "unit": "%"}]}, {"molecule": "NCCc1ccc(-c2ncnc3[nH]cnc23)cc1", "values": [{"measurement": "inhibition", "setting": "[5]", "value": 42.5, "unit": "%"}]}, {"molecule": "CNCc1ccc(-c2ncnc3[nH]cnc23)cc1", "values": [{"measurement": "inhibition", "setting": "[6]", "value": 54.5, "unit": "%"}]}]}
